Reference: paper PMC6379498, “Radiosynthesis and in vivo evaluation of ^11C-labeled BMS-193885 and its desmethyl analog as PET tracers for neuropeptide Y1 receptors” (EJNMMI Radiopharmacy and Chemistry, 2019)

What was measured:
[1] = Biodistribution of radioactivity in mice after tracer injection; assay type: in vivo; settings: for Radioactivity level, blood / Radioactivity level, brain / Radioactivity level, heart / Radioactivity level, kidney / Radioactivity level, liver / Radioactivity level, lung / Radioactivity level, muscle / Radioactivity level, pancreas / Radioactivity level, small intestine / Radioactivity level, spleen: mean±S.D. n=4
Description: [^11C]1 (13 MBq/0.12 nmol) or [^11C]2 (15 MBq/0.36 nmol) was intravenously injected into mice (aged 7–8 weeks, weighing 33–38 g, n = 4). Mice were euthanized by cervical dislocation at 5, 15, 30, or 60 min post-injection.
(§1) Blood samples were collected by heart puncture. Tissues were dissected and weighed. The radioactivity in samples was measured with an automatic gamma counter (Wizard 3′′ 1480, PerkinElmer, Waltham, MA, USA). The tissue uptake of radioactivity was expressed as the percentage of injected dose detected per gram of sample (%ID/g, tissue radioactivity/g tissue/injected radioactivity × 100).

NPY Y1-Rs = target: T1, NPY Y1-Rs (Mus musculus, UniProt Q04573); assay: Effect of pretreatment with 1 (BMS-193885) on tissue distribution of radioactivity; assay type: in vivo, mice; settings: 30 min post-injection, 1 10 mg/kg 20-30 min before tracer, vs control
T1 construct: in the lung, spleen, and kidney, which are rich in NPY Y1-Rs; from tissue; host or cells: organs of living mice (blood, heart, lung, spleen, kidney, liver, pancreas, muscle, brain etc.)
T1 sequence (Q04573 1-382): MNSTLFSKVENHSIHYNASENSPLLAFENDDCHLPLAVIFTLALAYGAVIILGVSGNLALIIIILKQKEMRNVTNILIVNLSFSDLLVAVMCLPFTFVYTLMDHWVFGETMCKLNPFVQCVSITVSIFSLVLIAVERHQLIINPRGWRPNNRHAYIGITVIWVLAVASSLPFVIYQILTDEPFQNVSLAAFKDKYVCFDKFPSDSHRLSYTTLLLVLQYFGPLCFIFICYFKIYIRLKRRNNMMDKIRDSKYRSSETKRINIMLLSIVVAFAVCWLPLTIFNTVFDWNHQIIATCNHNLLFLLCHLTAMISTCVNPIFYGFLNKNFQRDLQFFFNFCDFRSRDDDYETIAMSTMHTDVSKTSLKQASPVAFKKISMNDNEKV
Description: (§2) [^11C]1 (7.1–14 MBq/0.079–0.23 nmol) or [^11C]2 (6.0 MBq/0.16 nmol) was intravenously injected into mice (aged 7–8 weeks, weighing 32–36 g, n = 4–8) 20–30 min after the administration of the solution of 1 (10 mg/kg body weight [b.w.]/0.1 mL water containing 20% Tween 80), elacridar (5 mg/kg b.w./0.1 mL water), or a control fluid (0.1 mL water). Mice were euthanized by cervical dislocation at 30 min post-injection.
Blood samples were collected by heart puncture. Tissues were dissected and weighed. […] The tissue uptake of radioactivity was expressed as the percentage of injected dose detected per gram of sample (%ID/g, tissue radioactivity/g tissue/injected radioactivity × 100).

P-gp and BCRP = assay: Effect of pretreatment with elacridar on tissue distribution of radioactivity; assay type: in vivo, mice; settings: 30 min post-injection, elacridar 5 mg/kg 20-30 min before tracer, vs control
Description: as §2, with “The effects of pretreatment with 1 (BMS-193885) or the ABC transporter-inhibitor elacridar (inhibiting drug efflux transporters, mainly P-gp and BCRP) on tissue distributions of radioactivity were investigated. [^11C]1” for “[^11C]1”
as §1

In the case of `COC(=O)C1=C(C)NC(C)=C(C(=O)OC)C1c1cccc(N[11C](=O)NCCCN2CCC(c3cccc(O)c3)CC2)c1` [[^11C]2], the “Radioactivity level, blood” value ([1]; 5 min after i.v. injection) was 0.65±0.05 %ID/g, the “Radioactivity level, blood” value ([1]; 15 min after i.v. injection) was 0.21±0.01 %ID/g and the “Radioactivity level, blood” value ([1]; 30 min after i.v. injection) was 0.17±0.02 %ID/g. The “Radioactivity level, blood” value ([1]; 60 min after i.v. injection) was 0.19±0.20 %ID/g, the “Radioactivity level, brain” value ([1]; 5 min after i.v. injection) was 0.05±0.02 %ID/g and the “Radioactivity level, brain” value ([1]; 15 min after i.v. injection) was 0.04±0.04 %ID/g. The “Radioactivity level, brain” value ([1]; 30 min after i.v. injection) was 0.01±0.00 %ID/g, the “Radioactivity level, brain” value ([1]; 60 min after i.v. injection) was 0.03±0.01 %ID/g and the “Radioactivity level, heart” value ([1]; 5 min after i.v. injection) was 0.69±0.09 %ID/g. The “Radioactivity level, heart” value ([1]; 15 min after i.v. injection) was 0.42±0.02 %ID/g, the “Radioactivity level, heart” value ([1]; 30 min after i.v. injection) was 0.28±0.04 %ID/g and the “Radioactivity level, heart” value ([1]; 60 min after i.v. injection) was 0.14±0.04 %ID/g. For the same molecule, the Brain penetration ([1]; judged from brain radioactivity at 30 min) was “penetrated the brain poorly”, the “Radioactivity level, kidney” value ([1]; 5 min after i.v. injection) was 13.25±1.18 %ID/g and the “Radioactivity level, kidney” value ([1]; 15 min after i.v. injection) was 10.96±0.51 %ID/g. The “Radioactivity level, kidney” value ([1]; 30 min after i.v. injection) was 9.89±0.52 %ID/g, the “Radioactivity level, kidney” value ([1]; 60 min after i.v. injection) was 9.23±1.61 %ID/g and the “Radioactivity level, liver” value ([1]; 5 min after i.v. injection) was 29.54±1.57 %ID/g. For the same molecule, the “Radioactivity level, liver” value ([1]; 15 min after i.v. injection) was 24.28±3.04 %ID/g, the “Radioactivity level, liver” value ([1]; 30 min after i.v. injection) was 15.54±4.41 %ID/g and the “Radioactivity level, liver” value ([1]; 60 min after i.v. injection) was 8.43±2.71 %ID/g. The “Radioactivity level, lung” value ([1]; 5 min after i.v. injection) was 1.00±0.08 %ID/g, the “Radioactivity level, lung” value ([1]; 15 min after i.v. injection) was 0.79±0.11 %ID/g and the “Radioactivity level, lung” value ([1]; 30 min after i.v. injection) was 0.82±0.13 %ID/g. For the same molecule, the “Radioactivity level, lung” value ([1]; 60 min after i.v. injection) was 0.65±0.08 %ID/g, the “Radioactivity level, muscle” value ([1]; 5 min after i.v. injection) was 0.44±0.21 %ID/g and the “Radioactivity level, muscle” value ([1]; 15 min after i.v. injection) was 0.30±0.02 %ID/g. The “Radioactivity level, muscle” value ([1]; 30 min after i.v. injection) was 0.38±0.17 %ID/g, the “Radioactivity level, muscle” value ([1]; 60 min after i.v. injection) was 0.33±0.19 %ID/g and the “Radioactivity level, pancreas” value ([1]; 5 min after i.v. injection) was 1.20±0.18 %ID/g. For the same molecule, the “Radioactivity level, pancreas” value ([1]; 15 min after i.v. injection) was 1.27±0.11 %ID/g, the “Radioactivity level, pancreas” value ([1]; 30 min after i.v. injection) was 1.18±0.18 %ID/g and the “Radioactivity level, pancreas” value ([1]; 60 min after i.v. injection) was 1.15±0.13 %ID/g. For the same molecule, the “Radioactivity level, small intestine” value ([1]; 5 min after i.v. injection) was 15.78±6.51 %ID/g, the “Radioactivity level, small intestine” value ([1]; 15 min after i.v. injection) was 30.77±8.94 %ID/g and the “Radioactivity level, small intestine” value ([1]; 30 min after i.v. injection) was 27.23±12.69 %ID/g. The “Radioactivity level, small intestine” value ([1]; 60 min after i.v. injection) was 13.52±4.25 %ID/g, the “Radioactivity level, spleen” value ([1]; 5 min after i.v. injection) was 0.79±0.11 %ID/g and the “Radioactivity level, spleen” value ([1]; 15 min after i.v. injection) was 0.55±0.07 %ID/g. For the same molecule, the “Radioactivity level, spleen” value ([1]; 30 min after i.v. injection) was 0.37±0.07 %ID/g, the “Radioactivity level, spleen” value ([1]; 60 min after i.v. injection) was 0.23±0.05 %ID/g and the “Change of radioactivity level in blood by pretreatment with 1” value (NPY Y1-Rs; blood) was “not changed”. For the same molecule, the “Change of radioactivity level in brain by pretreatment with 1” value (NPY Y1-Rs; brain) was “not changed”, the “Change of radioactivity level in heart by pretreatment with 1” value (NPY Y1-Rs; heart) was “not changed” and the “Change of radioactivity level in kidney by pretreatment with 1” value (NPY Y1-Rs; kidney) was “significantly decreased”. The “Change of radioactivity level in lung by pretreatment with 1” value (NPY Y1-Rs; lung) was “significantly decreased”, the “Change of radioactivity level in muscle by pretreatment with 1” value (NPY Y1-Rs; muscle) was “not changed” and the “Change of radioactivity level in pancreas by pretreatment with 1” value (NPY Y1-Rs; pancreas) was “not changed”. The “Change of radioactivity level in spleen by pretreatment with 1” value (NPY Y1-Rs; spleen) was “significantly decreased”, the “Change of radioactivity level in brain by pretreatment with elacridar” value (P-gp and BCRP; brain) was “not increased” and the “Change of radioactivity level in heart by pretreatment with elacridar” value (P-gp and BCRP; heart) was “significantly increased”. For the same molecule, the “Change of radioactivity level in kidney by pretreatment with elacridar” value (P-gp and BCRP; kidney) was “significantly decreased” and the “Change of radioactivity level in liver by pretreatment with elacridar” value (P-gp and BCRP; liver) was “significantly increased”.
